From paper PMC10623575, “Discovery of Potent and Selective CB2 Agonists Utilizing a Function-Based Computational Screening Protocol” (ACS Chemical Neuroscience, 2023)
Where two headings read alike, the source gives them in different places.

Legend:
[1] = target: T1, CB2 receptor (Homo sapiens, UniProt P34972); experiment: Calcium mobilization assay, antagonist mode (CP55940 challenge), CHO expressing CB2; type: cell-based; conditions: for SI, selectivity index for the CB2, SI = IC50(CB1)/IC50(CB2): antagonist mode
T1 construct: expressed in transfected cells
Method: (§1) Chinese hamster ovarian (CHO) cells collected from the American Type Culture Collection were maintained in Ham’s F-12K (Kaighn’s) supplemented with 100 mg/L streptomycin, 100 mg/L penicillin, and 10% fetal bovine serum (FBS) in a humidified atmosphere of 5% CO2 at 37 °C. CHO cells were co-transfected with plasmids encoding CB1 or CB2 and Gα16 by electroporation. To establish stable cell lines, transfected cells were seeded on 10 cm dishes with 40 μg/mL blasticidin and 1 mg/mL G418 in culture medium after 24 h. The selection medium was substituted once every 3 days until colonies formed. A solitary colony was obtained, propagated, and assessed using a calcium mobilization assay to verify the function and expression of the transfected genes.
(§2) 3 × 10^4 cells/well were employed to seed cells onto 96-well plates, which were subsequently incubated throughout the night. Cells were then treated with 2 μM Fluo-4 AM in HBSS (0.3 mM Na2HPO4, 5.4 mM KCl, 4.2 mM NaHCO3, 0.4 mM KH2PO4, 0.5 mM MgCl2, 1.3 mM CaCl2, 137 mM NaCl, 0.6 mM MgSO4, 250 μM sulfinpyrazone, and 5.6 mM D-glucose, pH 7.4) for 45 min at 37 °C. […] Meanwhile, the change of intracellular calcium was measured at an excitation wavelength of 525 and 485 nm. For antagonist mode, the extra dye was washed out and 50 μL of HBSS with test compounds, DMSO (negative control), or AM630 (positive control) was introduced. […] The change of intracellular calcium was captured at an excitation wavelength of 525 and 485 nm. To be noticed, each experiment has been independently replicated three times, with three repetitions and eight gradients each time.
(§3) The collected data were processed with GraphPad Prism software (GraphPad). […] Means ± SEM were computed utilizing this software. The analyses were evaluated by the Student t test. When the p value is smaller than 0.05, the result is statistically significant.

[2] = target: CB1 receptor (Homo sapiens, UniProt P21554); experiment: Calcium mobilization assay, antagonist mode (CP55940 challenge), CHO expressing CB1; type: cell-based
Method: as §1, §2, §3

[3] = target: T1, CB2 receptor; conditions: representative ligands for active CB2 (Table S7); ref SI refs 3, 6, 7, 10, 11; read-out: Experimental Ki, Active CB2; cited from earlier work
[4] = CB2 IC50, antagonist activity, CHO expressing CB2, three independent assays, mean ± SEM
[5] = CB2 antagonist(μM) replicate 1, single independent experiment, replicate 1
[6] = CB2 antagonist(μM) replicate 2, single independent experiment, replicate 2
[7] = CB2 antagonist(μM) replicate3, single independent experiment, replicate 3
[8] = antagonist activity, CHO expressing CB1, read-out: CB1 IC50
[9] = antagonist activity, CHO expressing CB2, three independent assays, mean ± SEM, read-out: CB2 IC50
[10] = single independent experiment, replicate 1, read-out: CB2 antagonist(μM) replicate 1
[11] = single independent experiment, replicate 2, read-out: CB2 antagonist(μM) replicate 2
[12] = single independent experiment, replicate 3, read-out: CB2 antagonist(μM) replicate3

Sequence of CB1 receptor (P21554 whole entry): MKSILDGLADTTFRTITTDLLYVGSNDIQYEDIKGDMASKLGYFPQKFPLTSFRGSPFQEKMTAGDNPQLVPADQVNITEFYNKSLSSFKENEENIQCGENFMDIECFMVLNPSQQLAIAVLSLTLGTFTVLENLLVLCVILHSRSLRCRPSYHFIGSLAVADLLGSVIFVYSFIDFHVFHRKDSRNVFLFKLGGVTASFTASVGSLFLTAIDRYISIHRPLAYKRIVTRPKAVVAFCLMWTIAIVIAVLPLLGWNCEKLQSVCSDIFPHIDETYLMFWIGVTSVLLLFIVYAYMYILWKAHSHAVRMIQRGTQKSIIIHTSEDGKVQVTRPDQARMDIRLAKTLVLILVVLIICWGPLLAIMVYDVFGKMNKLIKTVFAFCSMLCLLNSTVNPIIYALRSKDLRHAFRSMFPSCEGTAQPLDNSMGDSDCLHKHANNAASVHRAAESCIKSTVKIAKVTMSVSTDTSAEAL
T1 sequence (P34972 whole entry): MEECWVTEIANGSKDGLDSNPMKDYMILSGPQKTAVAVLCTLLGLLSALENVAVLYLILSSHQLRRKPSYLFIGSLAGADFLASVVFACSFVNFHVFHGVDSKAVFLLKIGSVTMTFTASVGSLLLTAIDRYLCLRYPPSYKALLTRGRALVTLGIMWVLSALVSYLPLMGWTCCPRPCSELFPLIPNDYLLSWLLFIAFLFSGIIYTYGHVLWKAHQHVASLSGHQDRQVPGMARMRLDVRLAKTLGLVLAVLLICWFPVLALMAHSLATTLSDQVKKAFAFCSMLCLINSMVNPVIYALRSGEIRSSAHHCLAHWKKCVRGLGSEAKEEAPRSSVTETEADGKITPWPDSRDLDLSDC

COc1ccc(C(=O)c2c(C)n(CCN3CCOCC3)c3cc(I)ccc23)cc1 [AM630, reference compound]
IC50 [1, 4]: 0.34 ± 0.1 µM | IC50 [1, 5]: 0.153 µM | IC50 [1, 6]: 0.319 µM | IC50 [1, 7]: 0.55 µM

COc1ccc(C=C2SC(=O)N(C(C)C)C2=O)cc1OC(=O)CCCCl [Compound 38, 5-((3-Isopropyl-2,4-dioxothiazolidin-5-ylidene)methyl)-2-methoxyphenyl 4-Chlorobutanoate]
IC50 [2, 8]: > 10000 nM | IC50 [1, 9]: 0.4 ± 0.16 µM | SI, selectivity index for the CB2, SI = IC50(CB1)/IC50(CB2) [1]: >25 | IC50 [1, 10]: 0.715 µM | IC50 [1, 11]: 0.256 µM | IC50 [1, 12]: 0.224 µM

CCCS(=O)(=O)Oc1cc(C=C2SC(=O)N(C(C)C)C2=O)ccc1OC [Compound 39, 5-((3-Isopropyl-2,4-dioxothiazolidin-5-ylidene)methyl)-2-methoxyphenyl Propane-1-sulfonate]
IC50 [2, 8]: > 10000 nM | IC50 [1, 9]: 0.33 ± 0.09 µM | SI, selectivity index for the CB2, SI = IC50(CB1)/IC50(CB2) [1]: 23 | IC50 [1, 10]: 0.445 µM | IC50 [1, 11]: 0.115 µM | IC50 [1, 12]: 0.44 µM

CCCS(=O)(=O)Oc1cc(C=C2SC(=O)N(CC(C)C)C2=O)ccc1OC [Compound 40, 5-((3-Isobutyl-2,4-dioxothiazolidin-5-ylidene)methyl)-2-methoxyphenyl Propane-1-sulfonate]
IC50 [2]: > 10000 nM | IC50 [1, 4]: 2.99 ± 1.42 µM | IC50 [1, 5]: 2.64 µM | IC50 [1, 6]: 5.6 µM | IC50 [1, 7]: 0.728 µM | SI, selectivity index for the CB2, SI = IC50(CB1)/IC50(CB2) [1]: > 3

CCCCCn1cc(C(=O)C2C(C)(C)C2(C)C)c2ccccc21 [UR-144]
Ki [3]: 1.8 nM
